pIC50: −log10 of the molar value. Values after ≈ are worked out from the molar mass of the structure shown.
Assays:
[1] = tested on: Haemophilus influenzae; assay: Antibacterial activity against Haemophilus influenzae assessed as bacterial growth inhibition measured after 16 to 24 hrs by broth microdilution assay; type: functional; details: time 16-24 hrs
[2] = tested on: Staphylococcus aureus; assay: Antibacterial activity against Methicillin-resistant Staphylococcus aureus assessed as inhibition of bacterial growth; type: functional
[3] = tested on: Staphylococcus epidermidis; assay: Antibacterial activity against Methicillin-resistant Staphylococcus epidermidis assessed as inhibition of bacterial growth; type: functional
[4] = biological target: Coagulation factor X (Homo sapiens, UniProt P00742); assay: Inhibition of human factor Xa
[5] = tested on: Staphylococcus aureus; assay: Antibacterial activity against Staphylococcus aureus assessed as reduction in microbial growth by CLSI based broth microdilution method; type: functional
[6] = tested on: Staphylococcus epidermidis; assay: Antibacterial activity against Methicillin-resistant Staphylococcus epidermidis assessed as bacterial growth inhibition; type: functional
[7] = tested on: Staphylococcus epidermidis; assay: Antibacterial activity against linezolid-resistant Staphylococcus epidermidis assessed as reduction in bacterial growth; type: functional
[8] = tested on: Staphylococcus aureus; assay: Antibacterial activity against Linezolid-resistant Staphylococcus aureus assessed as reduction in bacterial growth; type: functional
[9] = tested on: Staphylococcus epidermidis; assay: Antibacterial activity against Staphylococcus epidermidis assessed as reduction in microbial growth after 24 hrs by CLSI based microdilution method; type: functional
[10] = tested on: Staphylococcus aureus; assay: Antibacterial activity against methicillin-resistant Staphylococcus aureus assessed as reduction in microbial growth by CLSI based broth microdilution method; type: functional
[11] = Intrinsic clearance in mouse liver microsomes; type: ADME, Microsome; details: read-out: CLH

Sequence of Coagulation factor X (P00742 41-179 limits assumed): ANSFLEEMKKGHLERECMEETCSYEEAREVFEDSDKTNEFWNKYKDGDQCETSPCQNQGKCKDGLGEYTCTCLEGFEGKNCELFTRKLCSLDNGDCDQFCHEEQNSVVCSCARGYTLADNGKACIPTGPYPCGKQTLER
Sequence of Coagulation factor X (P00742 235-488 limits assumed): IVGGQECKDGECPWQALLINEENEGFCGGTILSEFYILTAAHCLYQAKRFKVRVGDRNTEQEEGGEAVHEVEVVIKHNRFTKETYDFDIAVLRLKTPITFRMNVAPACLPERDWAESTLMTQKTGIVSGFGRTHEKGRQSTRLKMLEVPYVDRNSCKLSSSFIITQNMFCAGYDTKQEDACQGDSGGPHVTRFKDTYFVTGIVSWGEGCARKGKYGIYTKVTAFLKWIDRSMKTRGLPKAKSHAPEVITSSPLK

For `C[S+]([O-])c1ccc(N2CC(CCl)OC2=O)cc1` (stereo not given), the MIC [1] was 16 µg/mL (≈ 58.4 µM).
Work on `CC(=O)NC[C@H]1CN(c2ccc([S+](C)[O-])cc2)C(=O)O1` (stereo not given in full) yielded an MIC [2] of 1 µg/mL (≈ 3.37 µM) and an MIC [3] of 1 µg/mL (≈ 3.37 µM).
With `O=C(NC[C@@H]1OC(=O)N2c3ccc(N4CCOCC4=O)cc3OC[C@@H]12)c1ccc(Cl)s1` the pIC50 [4] was 8.52.
With `O=C(NC[C@@H]1OC(=O)N2c3ccc(N4CCOCC4=O)cc3OC[C@H]12)c1ccc(Cl)s1` the pIC50 [4] was 7.30.
For `CC(=O)N(C)c1ccc2c(c1)OC[C@H]1[C@H](CNC(=O)c3ccc(Cl)s3)OC(=O)N21`, the pIC50 [4] was 5.66.
Work on `O=C(NC[C@@H]1OC(=O)N2c3ccc(N4CCOC4=O)cc3OC[C@@H]12)c1ccc(Cl)s1` yielded a pIC50 [4] of 4.80.
Work on `CS(=O)(=O)c1ccccc1-c1ccc2c(c1)OC[C@H]1[C@H](CNC(=O)c3ccc(Cl)s3)OC(=O)N21` yielded a pIC50 [4] of 7.52.
Work on `O=C(NC[C@@H]1OC(=O)N2c3ccc(N4CCOCC4=O)cc3SC[C@@H]12)c1ccc(Cl)s1` yielded a pIC50 [4] of 8.70.
For `O=C(NC[C@@H]1OC(=O)N2c3ccc(N4CCCCC4=O)cc3SC[C@@H]12)c1ccc(Cl)s1`, the pIC50 [4] was 8.40.
Work on `O=C(NC[C@@H]1OC(=O)N2c3ccc(N4CCOCC4=O)cc3[S+]([O-])C[C@@H]12)c1ccc(Cl)s1` (stereo not given in full) yielded a pIC50 [4] of 7.22.
`O=C(NC[C@@H]1OC(=O)N2c3ccc(N4CCOCC4=O)cc3S(=O)(=O)C[C@@H]12)c1ccc(Cl)s1` gave a pIC50 [4] of 7.70.
Compound `O=C(NC[C@@H]1OC(=O)N2c3ccc(N4CCOCC4=O)cc3CC[C@@H]12)c1ccc(Cl)s1` has a pIC50 [4] of 8.40.
Compound `O=C(NC[C@@H]1OC(=O)N2c3ccc(N4CCCCC4=O)cc3CC[C@@H]12)c1ccc(Cl)s1` has a pIC50 [4] of 8.22.
Compound `O=C(NC[C@@H]1OC(=O)N2c3ccc(N4CCOCC4=O)cc3NC[C@@H]12)c1ccc(Cl)s1` has a pIC50 [4] of 8.30.
`COC(=O)C1(C(=O)OC)Cc2cc(-c3ccc(N4C[C@H](CO)OC4=O)cc3F)ccc2N2CCOCC21` (stereo not given in full) showed an MIC [5] of 16 µg/mL, an MIC [6] of 8 µg/mL (≈ 15.5 µM) and an MIC [7] of over 32 µg/mL. It also gave an MIC [8] of over 32 µg/mL, an MIC [9] of 8 µg/mL and an MIC [10] of 8 µg/mL.
With `O=C1NC(=O)C2(Cc3cc(-c4ccc(N5C[C@H](CO)OC5=O)cc4F)ccc3N3CCOCC32)C(=O)N1` (stereo not given in full) the MIC [5] was 8 µg/mL, the MIC [6] was 2 µg/mL (≈ 3.92 µM) and the MIC [7] was 32 µg/mL (≈ 62.7 µM). It also gave an MIC [8] of 32 µg/mL (≈ 62.7 µM), an MIC [9] of 4 µg/mL and an MIC [10] of 4 µg/mL.
For `O=C1NC(=O)C2(Cc3cc(-c4ccc(N5C[C@H](CO)OC5=O)cc4F)ccc3N3CCCCC32)C(=O)N1` (stereo not given in full), the MIC [5] was 4 µg/mL, the MIC [6] was under 1 µg/mL and the MIC [7] was 32 µg/mL (≈ 62.9 µM). The MIC [8] was 16 µg/mL (≈ 31.5 µM), the MIC [9] was 2 µg/mL and the MIC [10] was 2 µg/mL.
In the case of `COC(=O)C1(C(=O)OC)Cc2cc(-c3ccc(N4C[C@H](CNC(C)=O)OC4=O)cc3F)ccc2N2CCOCC21` (stereo not given in full), the MIC [5] was 8 µg/mL, the MIC [6] was 4 µg/mL (≈ 7.2 µM) and the MIC [7] was 32 µg/mL (≈ 57.6 µM). The MIC [8] was over 32 µg/mL, the MIC [9] was 4 µg/mL and the MIC [10] was 4 µg/mL.
For `CC(=O)NC[C@H]1CN(c2ccc(N3CCC(Nc4ccc(Br)cc4)CC3)c(F)c2)C(=O)O1`, the CLint scaled [11] was 3.46 mL/min/kg.

Reference: ChEMBL document CHEMBL5550106, “Recent advances in the exploration of oxazolidinone scaffolds from compound development to antibacterial agents and other bioactivities” (Eur J Med Chem, 2024)
